In the NIST ThermoML archive (doi:10.1016/j.jct.2018.12.025):

Assay: relative permittivity at various frequencies (dimensionless)
Conditions: 96.5 kPa, Liquid, Frequency=1 MHz, Parallel plate capacitor

O [water]
Conditions | relative permittivity
298.15 K | 79.68
308.15 K | 75.51
318.15 K | 71.42
328.15 K | 68.44
338.15 K | 64.51
348.15 K | 60.78
